Measurements reported in US20230132088A1, “DETECTION OF GENE POLYMORPHISMS” (The Board of Trustees of the Leland Stanford Junior …, priority 2020, published 2023).

Assay: Population pharmacokinetic analysis of INH clearance in tuberculosis patients, by predicted NAT2 acetylator type
Conditions: human, plasma, INH clearance rate (median), 48 pulmonary TB patients

NNC(=O)c1ccncc1 [INH, isoniazid]
clearance (predicted fast (rapid) acetylators): 778 mL/min | clearance (predicted intermediate acetylators): 683 mL/min | clearance (predicted slow acetylators, standardized weight-based dosing): 322 mL/min
